Measured values taken from patent US6541480B2, “1-aryl-1,8-naphthylidin-4-one derivative as type IV phosphodiesterase inhibitor” (Suntory Limited, priority 1997, dated 2003).
Counter-ions that a name gives are not always drawn.

Legend:
[1] = test system: type IV phosphodiesterase; assay: Type IV phosphodiesterase inhibiting activity (3H-cAMP hydrolysis, PDE IV fraction from U937 cells); assay type: biochemical; settings: PDE IV fraction from human U937 cells, 30° C., 30 minutes
Protocol: (1) Method of Measurement of Type IV Phosphodiesterase Inhibiting Activity
The following assay was used to evaluate the ability of the compound of the present invention to suppress type IV phosphodiesterase, according to Biochemical.
1) Type IV phosphodiesterase activity fractions were prepared as follows. Human histiocytic lymphoma cell line U937 was cultured in an RPMI1640 medium containing 10% fetal calf serum to obtain 10^9 cells of U937. The cells were recovered by centrifugation and suspended in 40 ml of buffer A (20 mM bis-tris, 5 mM 2-mercaptoethanol, 2 mM benzamidine, 2 mM EDTA, 0.1 mM 4-(2-aminoethyl)benzensulfonyl hydrochloride, 50 mM sodium acetate, pH=6.5). The cells were broken by a sonication and centrifuged (4° C., 10,000G, 10 minutes) to obtain a supernatent. This was filtered by a 0.45 μm filter to obtain the soluble fraction.
The soluble fraction obtained was applied into a 1×10 cm DEAE Sepharose column equalibrated with the buffer A. 120 ml of the buffer A containing a linear gradient solution of 0.05 to 1 M sodium acetate was used to separate the phosphodiesterase and recover 24 5-ml fractions. Each of the fractions was measured for the cAMP phosphodiesterase activity.
2) The test compound was reacted at a desired concentration in a reaction mixture containing 20 mM tris-HCl (pH 7.5), 1 mM MgCl2, 100 μM EDTA, 330 μg/ml calf serum albumin, 10 μg/ml 5′-nucleotidase, 0.4 μCi ^3H-cAMP ([…] cAMP) and the type IV phosphodiesterase stored solution at 30° C. for 30 minutes. QAE-Sephadex suspended in 10 mM of hepes-Na (pH-7.0) was added to the reaction mixture which was then allowed to stand for 5 minutes, then the supernatant was obtained, QAE-Sephadex was further added, to the supernatant, and was allowed to stand for 5 minutes, then the supernatant was obtained and measured for radioactivity.

[2] = test system: TNF-α production by LPS stimulated mouse peritoneal macrophages; assay: TNF-α production inhibitory activity by LPS stimulated macrophages (ELISA); assay type: cell-based; settings: LPS 10 μg/ml, 8 hours
Protocol: (1) Method of Measurement of TNF-α Production Inhibitory Activity by LPS Stimulated Macrophages
The following assay was used to evaluate the ability of the compound of the present invention to suppress TNF-α production by LPS stimulated macrophages according to Immuno pharmacol. 29, 121-127 (1995).
1) 6 to 10 week old female BALB/c mice were used, 2 ml portions of thioglycolate were intraperitoneally administered, and the abdominal cavities were washed by 10 ml of PBS after 4 days, whereby 1 to 2×10^7 peritoneal cells were obtained per mouse. These were suspended in a hemocyte solution (0.75% ammonium chloride, 17 mM tris-hydrochlorate buffer, pH7.2), centrifuged, then resuspended in an RPMI1640 medium including 10% fetal calf serum and seeded in a 96-well cell culture plate at a density of 1×10^5 cells/50 μl/well. Since these cells adhered strongly to the tissue culture plate and were positive in nonspecific esterase staining, they were used for the test as mouse peritoneal macrophages. Mouse peritoneal macrophages were precultured overnight at 37° C. in 5% CO2 for the experiment.
2) E. Coli (serum type 055:B5) derived LPS was dissolved in PBS in a concentration of 1 mg/ml, then sterilized by filtration. The test compound was dissolved in DMSO to make a 1000-fold concentration solution of the final concentration of use. 10 μl of the above LPS stock solution (final concentration 10 μg/ml) and 1 μl of the tested substance stock solution were added and mixed in 0.5 ml of RPMI1640 medium containing 10% fetal calf serum. This was added to the above cells at 50 μl/well and cultured for 8 hours. The cultured supernatant was recovered from each well and the TNF-α concentration was measured by the ELISA method (Cytoscreen® Immunoassay Kit Mouse TNF-α, BioSource International).

Row | IC50 [1] | IC50 ([2]; Peritoneal macrophage) | IC50 [2] | Structure (SMILES)
1 | 930 nM | – | – | CCOC(=O)c1cn(-c2cccc([N+](=O)[O-])c2)c2ncccc2c1=O [Example 19, Ethyl 1-(3-Nitrophenyl)-1,4-dihydro[1,8]naphthylidin-4-one-3-carboxylate]
2 | 600 nM | – | – | CCOC(=O)c1cn(-c2cccc(C(C)=O)c2)c2ncccc2c1=O [Example 24, Ethyl 1-(3-Acetophenyl)-1,4-dihydro[1,8]naphthylidin-4-one-3-carboxylate]
3 | 1600 nM | – | – | O=C(NCc1ccccn1)c1cn(-c2ccc(F)cc2)c2ncccc2c1=O [Example 62, 1-(4-Fluorophenyl)-N-(2-pyridyl)methyl-1,4-dihydro[1,8]naphthylidin-4-one-3-carboxamide]
4 | 270 nM | 600 nM | – | O=C(NCCc1ccccc1)c1cn(-c2ccc(F)cc2)c2ncccc2c1=O [Example 65, 1-(4-Fluorophenyl)-N-(2-phenylethyl)-1,4-dihydro[1,8]naphthylidin-4-one-3-carboxamide]
5 | 500 nM | – | – | COc1ccccc1NC(=O)c1cn(-c2ccc(F)cc2)c2ncccc2c1=O [Example 76, 1-(4-Fluorohenyl)-N-(2-methoxyphenyl)-1,4-dihydro[1,8]naphthylidin-4-one-3-carboxamide]
6 | 470 nM | – | – | N=C(N)c1cccc(NC(=O)c2cn(-c3ccc(F)cc3)c3ncccc3c2=O)c1 [Example 97, N-(benzamidin-3-yl)-1-(4-fluorophenyl)-1,4-dihydro[1,8]naphthylidin-4-one-3-carboxamide hydrochloride]
7 | 3.1 nM | – | – | Cc1ccc(-n2cc(C(=O)Nc3c(Cl)cncc3Cl)c(=O)c3cccnc32)cc1 [Example 121, N-(3,5-Dichloroiyridin-4-yl)-1-(4-tolyl)-1,4-dihydro[18]naphthylidin-4-one-3-carboxamide]
8 | 0.6 nM | – | – | COc1ccc(-n2cc(C(=O)Nc3c(Cl)cncc3Cl)c(=O)c3cccnc32)cc1 [Example 123, N-(3,5-Dichloropyridin-4-yl)-1-(4-methoxyphenyl)-1,4-dihydro[1,8]naphthyldin-4-one-3-carboxamide]
9 | 110 nM | – | – | O=C(Nc1ccncc1)c1cn(-c2ccc(Cl)cc2)c2ncccc2c1=O [Example 124, 1-(4-Chlorophenyl)-N-(4-pyridyl)-1,4-dihydro[1,8]naphthylidin-4-one-3-carboxamide]
10 | 590 nM | – | – | O=C(Nc1cccnc1)c1cn(-c2ccccn2)c2ncccc2c1=O [Example 131, 1-(2-Pyridyl)-N-(3-pyridyl)-1,4-dihydro[1,8]naphthylidin-4-one-3-carboxamide]
11 | 940 nM | – | – | O=C(Nc1ccncc1)c1cn(-c2cccc3cccnc23)c2ncccc2c1=O [Example 149, 1-(8-Quinonyl)-N-(4-pyridyl)-1,4-dihydro[1,8]naphthylidin-4-one-3-carboxamide]
12 | – | – | 400 nM | CC(C)(C)OC(=O)Nc1ncc(-n2cc(C(=O)Nc3ccncc3)c(=O)c3cccnc32)cn1 [Example 150, 1-(2-tert-Butyloxycarbonylaminopyrimidin-5-yl)-N-(4-pyridyl)-1,4-dihydro[1,8]naphthylidin-4-one-3-carboxamide]

The remaining lines, values behind:

Row | Structure (SMILES) | IC50 [1] | IC50 ([2]; Peritoneal macrophage) | IC50 [2]
13 | CCn1cc(C(=O)NCCc2ccncc2)c(=O)c2ccc(C)nc21 [Comp. Ex., N-(2-(4-pyridyl)ethyl)-1-ethyl-7-methyl-1,4-dihydro[1,8]naphthylidin-4-one-3-carboxyamide, reference compound] | 5200 nM | 10000 nM | –
14 | NC(=O)c1cn(-c2ccc(F)cc2)c2ncccc2c1=O [Example 51, 1-(4-Fluorophenyl)-1,4-dihydro[1,8]naphthylidin-4-one-3-carboxamide] | 1400 nM | 400 nM | –
15 | CNC(=O)c1cn(-c2ccc(F)cc2)c2ncccc2c1=O [Example 52, 1-(4-Fluorophenyl)-N-methyl-1,4-dihydro[1,8]naphthylidin-4-one-3-carboxamide] | 150 nM | – | –
16 | CC(C)NC(=O)c1cn(-c2ccc(F)cc2)c2ncccc2c1=O [Example 53, 1-(4-Fluorophenyl)-N-isopropyl-1,4-dihydro[1,8]naphthylidin-4-one-3-carboxamide] | 27 nM | 10 nM | –
17 | C=CCNC(=O)c1cn(-c2ccc(F)cc2)c2ncccc2c1=O [Example 54, N-allyl-1-(4-fluorophenyl)-1,4-dihydro[1,8]naphthylidin-4-one-3-carboxamide] | 35 nM | 100 nM | –
18 | CC(C)CNC(=O)c1cn(-c2ccc(F)cc2)c2ncccc2c1=O [Example 55, 1-(4-Fluorophenyl)-N-isobutyl-1,4-dihydro[1,8]naphthylidin-4-one-3-carboxamide] | 31 nM | 100 nM | –
19 | O=C(NCC1CC1)c1cn(-c2ccc(F)cc2)c2ncccc2c1=O [Example 56, N-cyclopropylmethyl-1-(4-fluorophenyl)-1,4-dihydro[1,8]naohthylidin-4-one-3-carboxamide] | 26 nM | – | 4 nM
20 | O=C(NC1CCCCC1)c1cn(-c2ccc(F)cc2)c2ncccc2c1=O [Example 57, N-cyclohexyl-1-(4-fluorophenyl)-1,4-dihydro[1,8]naohthylidin-4-one-3-carboxamide] | 710 nM | 1000 nM | –
21 | O=C(NCCO)c1cn(-c2ccc(F)cc2)c2ncccc2c1=O [Example 58, 1-(4-Fluorothenyl)-N-(2-hydroxyethyl)-1,4-dihydro[1,8]naphthylidin-4-one-3-carboxamide] | 420 nM | 420 nM | –
22 | COCCNC(=O)c1cn(-c2ccc(F)cc2)c2ncccc2c1=O [Example 59, 1-(4-fluorophenyl)-N-(2-methoxyethyl)-1,4-dihydro[1,8]naphthylidin-4-one-3-carboxamide] | 640 nM | – | –
23 | O=C(NCc1ccccc1)c1cn(-c2ccc(F)cc2)c2ncccc2c1=O [Example 61, N-benzyl-1-(4-fluorophenyl)-1,4-dihydro[1,8]naphthylidin-4-one-3-carboxamide] | 390 nM | 1000 nM | –
24 | O=C(NCc1cccnc1)c1cn(-c2ccc(F)cc2)c2ncccc2c1=O [Example 63, 1-(4-Fluorophenyl)-N-(3-pyridyl)methyl-1,4-dihydro[1,8]naphthylidin-4-one-3-carboxamide] | 1200 nM | – | –
25 | O=C(NCc1ccncc1)c1cn(-c2ccc(F)cc2)c2ncccc2c1=O [Example 64, 1-(4-Fluorophenyl)-N-(4-pyridyl)methyl-1,4-dihydro[1,8]naphthylidin-4-one-3-carbdxamide] | 120 nM | 100 nM | –
26 | CCOC(=O)c1cccc(NC(=O)c2cn(-c3ccc(F)cc3)c3ncccc3c2=O)c1 [Example 85, Ethyl 3-[{[1-(4-Fluorophenyl)-1,4-dihydro[1,8]naphthylidin-4-one-3-yl]carbonyl}amino]benzoate] | 550 nM | – | –
27 | O=C(Nc1ccccc1-c1ccccc1)c1cn(-c2ccc(F)cc2)c2ncccc2c1=O [Example 100, N-(2-Biphenyl)-1-(4-fluorophenyl)-1,4-dihydro[1,8]naphthylidin-4-one-3-carboxamide] | 650 nM | – | –
28 | Cc1ccc(-n2cc(C(=O)Nc3ccncc3)c(=O)c3cccnc32)cc1 [Example 120, N-(4-Pyridyl)-1-(4-tolyl)-1,4-dihydro[1,8]naphthylidin-4-one-3-carboxamide] | 99 nM | – | –
29 | N=C(N)c1cccc(-n2cc(C(=O)Nc3ccncc3)c(=O)c3cccnc32)c1 [Example 130, 1-(Benzamidin-3-yl)-N-(4-pyridyl)-1,4-dihydro[1,8]naphthylidin-4-one-3-carboxamide] | 260 nM | – | –
30 | O=C(Nc1ccncc1)c1cn(-c2ccc(O)nc2)c2ncccc2c1=O [Example 145, 1-(2-Hydroxypyridin-5-yl)-N-(4-pyridyl)-1,4-dihydro[1,8]naphthylidin-4-one-3-carboxamide] | 400 nM | – | –
31 | COc1ccc(C2CNC(=O)C2)cc1OC1CCCC1 (stereo not drawn) [Rolipram, reference compound] | – | 100 nM | –
